In this test the test system is SKBR3. Description: Cell viability (CellTiter-Blue, 72 h), SKBR3 breast cancer cells. It is filed as cell-based. Particulars: for IC50: Homo sapiens; for effect (but only 50% effect): extent of effect reached. The protocol:
The cell lines tested in this Example were as follows. Breast cancer: MDA-MB-231; SK-BR3; and BT474. Liver cancer: HepG2.
The phytocannabinoids were tested alone and in various ratioed combinations in media containing final concentrations of 10% and 1% foetal bovine serum at 72 h for the breast and prostate cancer lines and 1% foetal bovine serum for the liver cancer line HepG2.
Each tumour cell line was maintained in vitro in RPMI 1640+10% heat inactivated FBS and 2 mM L-glutamine (growth media) at 37° C. in 5% CO2 and humidified conditions. The cells were harvested, washed, re-suspended into growth medium and counted. The cells were re-suspended into assay media (RPMI 1640+5% heat inactivated FBS+ and 2 mM L-glutamine) at 8×104-2×10^5 cells/ml (dependent upon cell type) and plated into the middle 240 wells of 384 well tissue culture plates (Corning CellBind, black-wall plates) 12.5 μl/well aliquots; 62.5 μl of growth media was aliquoted into the outer wells. There were 4 plates for each cell line. The plates were incubated overnight at 37° C., in 5% humidified CO2.
The phytocannabinoid test compounds were prepared in 100% DMSO vehicle at a stock concentration of 10 mM.
Starting with the 10 mM stock, the compounds were diluted to 125 μM in FBS-free growth media.
These were diluted in FBS-free growth media to 125 μM before serial dilution.
5 volumes of CBD 10 mM stock was added to 1 volume of the other agent (also at 10 mM) and 4 volumes of DMSO. This made a final concentration of 5 mM:1 mM. This was then diluted in FBS-free growth media so the top concentration of CBD would be 125 μM (before serial dilution). Each compound and compound combination stock was serially diluted in FBS-free growth media (containing 1.25% v/v DMSO) from 125 μM to 41.7, 13.89, 4.63, 1.54, 0.514, 0.171, 0.057 and 0.019 μM (1.25× final assay concentrations). Vehicle was prepared at equivalent dilutions in assay media. The top final concentration of compound in the assay was always 100 μM so CBD5:1CBG was 100 μM CBD and 20 μM CBG.
Taxotere SOC was prepared at a stock concentration of 1 mM in 100% DMSO. Taxotere was serially diluted from the stock solution into FBS-free growth media to 12.5 μM, then serially diluted in FBS-free growth media containing 1.25% DMSO to 4.17, 1.39, 0.46, 0.154, 0.051, 0.017, 0.006, 0.002 μM (1.25× final assay concentrations).
This was then serially diluted in FBS-free growth media to 0.417, 0.139, 0.046, 0.0154, 0.0051, 0.0017, 0.0006, 0.0002 μM (1.25× final assay concentrations). This was plated as a positive control for the SKBR3 & BT474 cell lines. 50 μl per well of compound/vehicle dilutions was added to the plates in replicates of 6. Where applicable total volume in the well was made up to 62.5 μl with assay media.
The plates were incubated for 72 h at 37° C. in 5% humidified CO2. To develop the plates, at 72 h, 10 μl of CellTiter-Blue™ reagent was added to each test/blank well. The plates were incubated at 37° C., 5% humidified CO2. Fluorescence was measured using a Flex II Station plate reader (570 nm excitation wavelength, 600 nm emission wavelength, 590 nm cut-off) after 3 h.
The experimental conditions were the same as the experiment above, with the same compound dilutions and volumes for plating but using growth media containing 10% FBS rather than FBS-free media.
The raw data values expressed in relative fluorescent units were normalised to the vehicle for each individual plate and any reduction in fluorescence indicated a decrease in viability.
The data were analysed in GraphPad PRISM using a non-linear sigmoidal plot with variable slope (asymmetric five point linear regression) and where possible an IC50 value for each single compound and combination was generated.
For the calculation, raw data values expressed in relative fluorescent units were normalised to the vehicle for each individual plate (set as 0%) and the reduction in fluorescence calculated as an increase in inhibition of viability.
On the technique in general: Alamar Blue is a resazurin reagent that responds to reducing activity.

[1] abbreviates: SK-BR-3, 72 h, read-out: IC50 values, SKBR3, 1% FBS, 72 h.
[2] abbreviates: SK-BR-3, 72 h, read-out: IC50 values, SKBR3, 10% FBS, 72 h.
Setting [3] is: SK-BR-3, read-out: Dm (median effect dose), SKBR3, 1% FBS, Calcusyn median-effect analysis.

Structures are written as SMILES. Like-named read-outs stand apart in the source and are kept apart here. Bounds are passed on as bounds.

For the molecule `CCCCCc1cc(O)c(C/C=C(\C)CCC=C(C)C)c(O)c1` [CBG, Cannabigerol], the IC50 reads like this: under setting [1], 4 µM; under setting [2], 33 µM; under setting [3], 8.55 µM.

For the molecule `C=C(C)[C@@H]1CCC(C)=C[C@H]1c1c(O)cc(CCCCC)c(C(=O)O)c1O` [CBDA, Cannabidiolic acid], the IC50 is 14.5 µM under setting [1], approximately 100 µM under setting [2] and 30 µM under setting [3].

For the molecule `C=C(C)[C@@H]1CCC(C)=C[C@H]1c1c(O)cc(CCCCC)cc1O` [CBD, Cannabidiol], the IC50 by setting is: under setting [1], 4 µM; under setting [2], 23 µM; under setting [3], 9.31 µM.

On to `CCCCCc1cc(O)c(C/C=C(\C)CCC=C(C)C)c(O)c1C(=O)O` [CBGA, Cannabigerolic acid], for which the IC50 runs as follows: under setting [1], 10.6 µM; under setting [2], more than 100 µM; under setting [3], 16.8 µM.

For `CC(=O)O[C@@]12CO[C@@H]1C[C@H](O)[C@@]1(C)C(=O)[C@H](O)C3=C(C)[C@@H](OC(=O)[C@H](O)[C@@H](NC(=O)OC(C)(C)C)c4ccccc4)C[C@@](O)([C@@H](OC(=O)c4ccccc4)[C@H]21)C3(C)C` [Taxotere, Docetaxel, reference compound], the IC50 under setting [1] is less than 0.001 µM and the IC50 under setting [2] was less than 0.001 µM. For the same molecule, the “effect (but only 50% effect)” value was “only 50%” (SKBR3, 1% FBS) and 50% effect) (SKBR3, 10% FBS).

Consider `CCCc1cc(O)c2c(c1)OC(C)(C)[C@@H]1CCC(C)=C[C@@H]21` [THCV, Tetrahydrocannabivarin], for which the IC50 is, setting by setting: under setting [1], 10.8 µM; under setting [2], 30 µM; under setting [3], 18.3 µM.

(Values after US9962341B2, “Active pharmaceutical ingredient (API) comprising cannabinoids for use in the treatment of cancer” (GW Pharma Limited, priority 2014, dated 2018).)
